Data from patent US5578575A, “Partially modified and retro-inverted tetrapeptides analogues of C-reactive protein fragments” (Italfarmaco S.P.A., priority 1992, dated 1996).

Assays:
[1] = test system: murine splenocytes; experiment: Stimulation of in vitro IFN-.tau. production by murine splenocytes (ELISA); assay type: cell-based, BALB/C mice; details: for IFN-.tau. production, Stimulation index / IFN-.tau. production, U/ml: 24 h; for IFN-.tau. production, Stimulation index: with respect to control; for IFN-.tau. production, U/ml: control 31 (Ex. 1, Ex. 2), 41 (Ex. 3)
Protocol: Stimulation of in vitro IFN-.tau.production by murine splenocytes The splenic cells were obtained from spleen of BALB/C mice as single cells suspension. The splenocytes thus obtained were resuspended in RPMI 1640 culture medium (Flow Lab., Hertz, UK) containing 5% of fetal calf serum (FCS) (HyClone, ST, Utah, USA) at a final concentrazione of 10^7 cells/ml, and incubated in 96-well plates for 24 hours at 37° C. in the presence of the tested compounds at the indicated concentration. At the end of the incubation the supernatant was collected, filtered by […] filter and freezed to -80° C. until the time of the test carried out by ELISA commercial kit (Genzyme, Boston, Mass., USA).

[2] = test system: murine peritoneal macrophages; experiment: Stimulation of IL-1 production by murine peritoneal macrophages (ELISA); assay type: cell-based, BALB/C mice; details: 96 h; for IL-1 production, Stimulation index: with respect to control; for IL-1 production, U/ml: control 15
Source text: Stimulation of IL-1 production by murine peritoneal macrophages Murine peritoneal macrophages were obtained by inoculation of a solution of hydrolized starch (BDH Chemicals, Poole, Dorset, UK) into the peritoneal cavity of BALB/C mice, three days before sacrificing the animals. The peritoneal cells were then collected by washing the peritoneal cavity with a solution of RPMI 1640 containing 10% of FCS, and resuspended in the same solution at a concetration of 10^6 cells/ml in 96-well plates. The incubation was performed for 96 hours at 37° C. in the presence of the compounds in question. At the end of the treatment the supernatants were collected and used for dosing cytokine by means of a suitable ELISA commerical kit (Genzyme, Boston, Mass., USA).

[3] = test system: murine peritoneal cells; experiment: Stimulation of the nitric oxide by murine peritoneal cells (chemiluminescence); assay type: cell-based, BALB/C mice; details: 96 h, with LPS 30 μg/ml; for nitric oxide, Stimulation index: with respect to control; for nitric oxide content: control 20
Protocol: Stimulation of the nitric oxide by murine peritoneal cells The peritoneal cells were obtained as described in the previous test, and incubated for 96 hours at 37° C. in the presence of the compounds in question and of lipopolysaccharide at a concentration of 30 μg/ml. At the end of the treatment the supernatants were collected and the nitric oxide content was determined by the chemiluminescence test described by Palmer R. M. J. et al, Nature, 327, 524, 1987.

[4] = test system: Leishmania major; experiment: Effect on the leishmanicidal activity of murine peritoneal macrophage (3H-thymidine incorporation by living parasites); assay type: cell-based; details: for cpm (counts per minute), 3H-thymidine incorporation by living parasites: control 18,273
Protocol: Effect on the leishmanicidal activity of murine peritoneal macrophage The peritoneal cells collected as described above were seeded in 96-well flat bottom plates (Nunc, Roskiled, DK) at a concentration of 10^5 […]; and incubated per 24 hours at 37° C. At the end of the treatment, the cells not adherent to the well were separated and discharged, whereas the adherent cells were washed three time with culture medium and incubated for 24 hours with the compounds in question, then the cells were infected through a 24 hours incubation with promastigotes of Leishmania major (L. major, PVL49 strain supplied by Dr. Neal R. A., London School of Hygiene and Tropical Medicine, London, UK). At the end of the infection treatment each well was added with 100 μl of a 0.01% solution od sodium dodecylsulphate in RPMI 1640, and the plates were incubated for 30 minutes at 37° C. The Schneider's culture medium (Schneider Drosophila medium, Gibco Lab., Grand Island, N.Y., USA) with 30% of FCS was added. Each well was added with 1 μCi of ^3 H-thymidine, and a 72 hours incubation was carried out at 37° C. The incorporation of radioactivity by the living parasites inside the peritoneal cells, which is correlated to the infection degree and consequently to the leishmanicidal activity of the cells, was measured by collecting the cells by means of a cell-harvester and measuring the radioactivity with liquid scintillation β-counter.

[5] = test system: BALB/C mice; experiment: In vivo protection against septic shock (LPS-inoculated mice, survival); details: LPS 50 mg/kg i.p., compound at time 0 or 30 minutes after LPS, checked for 8 days
Protocol: Evaluation of the in vivo protection against septic shock
BALB/C mice (6 mice/group) weighting between 20 and 25 g, were intraperitoneally inoculated with 50 mg/kg of LPS (lipopolysaccharide-Sigma). The groups, except for the control, were inoculated with increasing doses of one of the compounds of the invention dissolved in physiologic solution having a final volume of 0.5 ml, at time 0 (i.e. together with LPS) or 30 minutes after the LPS inoculation. The mice were checked for 8 days to determined the survival percentage. Compound of Example 1 yields a survival percentage of about 65% at doses of 6.2 ug/mouse and 0.62 ug/mouse, and its isomer B yields a survival percentage of about 80% at a dose of 6.25 ug/mouse and of 75% at a dose of 62.5 ug/mouse.

N=C(N)NCCC[C@H](NC(=O)[C@@H]1CCCN1C(=O)C(CCCCN)C(=O)NCN)C(=O)O (single isomer, unassigned) [Example 1]
IFN-.tau. production, Stimulation index ([1]; 0.1 μg/ml): 1.1 | IFN-.tau. production, U/ml ([1]; 0.1 μg/ml): 33 U/ml | IFN-.tau. production, change in words ([1]; 1.0 μg/ml): doubled | IFN-.tau. production, Stimulation index ([1]; 1.0 μg/ml): 1.9 | IFN-.tau. production, U/ml ([1]; 1.0 μg/ml): 60 U/ml | IFN-.tau. production, Stimulation index ([1]; 10.0 μg/ml): 1.6 | IFN-.tau. production, U/ml ([1]; 10.0 μg/ml): 49 U/ml | IL-1 production, Stimulation index ([2]; 0.01 μg/ml): 0.4 | IL-1 production, U/ml ([2]; 0.01 μg/ml): 6 U/ml | IL-1 production, Stimulation index ([2]; 0.1 μg/ml): 0.1 | IL-1 production, U/ml ([2]; 0.1 μg/ml): 2 U/ml | IL-1 production, Stimulation index ([2]; 1.0 μg/ml): 0.1 | IL-1 production, U/ml ([2]; 1.0 μg/ml): 2 U/ml | IL-1 production, Stimulation index ([2]; 10.0 μg/ml): 0,1 | IL-1 production, U/ml ([2]; 10.0 μg/ml): 2 U/ml | nitric oxide, Stimulation index ([3]; 0.01 μg/ml): 2.2 | nitric oxide content ([3]; 0.01 μg/ml): 43 nmol/mL | nitric oxide, Stimulation index ([3]; 0.1 μg/ml): 3.0 | nitric oxide content ([3]; 0.1 μg/ml): 59 nmol/mL | nitric oxide, Stimulation index ([3]; 1.0 μg/ml): 3.9 | nitric oxide content ([3]; 1.0 μg/ml): 77 nmol/mL | nitric oxide, Stimulation index ([3]; 10.0 μg/ml): 2.9 | nitric oxide content ([3]; 10.0 μg/ml): 57 nmol/mL | % reduction of infection ([4]; 0.1 μg/ml (minimum dose used)): over 70% | % reduction of infection ([4]; 0.1 μg/ml (minimum dose used), listed as Es. 1): 72% | cpm (counts per minute), 3H-thymidine incorporation by living parasites ([4]; 0.1 μg/ml): 5,096 cpm | % reduction of infection ([4]; 1.0 μg/ml): 79% | cpm (counts per minute), 3H-thymidine incorporation by living parasites ([4]; 1.0 μg/ml): 3,783 cpm | % reduction of infection ([4]; 10.0 μg/ml): 77% | cpm (counts per minute), 3H-thymidine incorporation by living parasites ([4]; 10.0 μg/ml): 4,292 cpm | survival percentage ([5]; 0.62 ug/mouse): about 65% | survival percentage ([5]; 6.2 ug/mouse): about 65%

N=C(N)NCCC[C@H](NC(=O)[C@@H]1CCCN1C(=O)C(CCCCN)C(=O)NCN)C(=O)O (single isomer, unassigned) [ITF 1358]
survival percentage ([5]; 6.25 ug/mouse): about 80% | survival percentage ([5]; 62.5 ug/mouse): 75%
